Test results as given in ChEMBL document CHEMBL1201862, “PubChem BioAssay data set” (2004).
The source made the active and inactive calls. Cut-off read from the data, not from the text of the source, for most assays here: actives have a measured EC50 and inactives only a lower limit.

Legend:
[1] = target: T1, Kappa-type opioid receptor (Homo sapiens, UniProt P41145); assay: kappa opioid receptor activation by imaging – image-based, set 3, SAR follow-up (AID 488833); assay type: functional
Mu-type opioid receptor = Mu-type opioid receptor (Homo sapiens, UniProt P35372); assay: SAR Analysis of Agonists of the MOR Receptor using an Image-Based Assay - Set 3. [Related pubchem assays (depositor defined):AID1777, AID1785, AID1786, AID1966, AID2133, AID2136, AID2284, AID2285, AID2352]; assay type: functional
[2] = target: Delta-type opioid receptor (Homo sapiens, UniProt P41143); assay: SAR Analysis of Agonists of the DOR Receptor using an Image-Based Assay - Set 3. [Related pubchem assays (depositor defined):AID1777, AID1786]; assay type: functional
[3] = target: T1, Kappa-type opioid receptor; assay: SAR analysis of small molecule agonists of the kappa opioid receptor via a luminescent beta-arrestin assay - Set 3. [Related pubchem assays (depositor defined):AID1777, AID1785, AID1786, AID1966, AID2133, AID2136, AID2284, AID2500]; assay type: functional
[4] = Luminescence Cell-Based Dose Response to Identify Activators of 5'UTR Stem-Loop Driven Prion Protein mRNA Translation in H4-C Neuroglioblastoma Cells. [Related pubchem assays: 1829 (Project Summary), 1814 (Primary HTS)]; assay type: functional
[5] = Luminescence Cell-Based Dose Response HTS to Identify Activators of Luciferase Translation or Activity in H4 […] Cells. [Related pubchem assays: 1829 (Project Summary), 1814 (Primary HTS)]; assay type: functional
H4 = assay: Luminescence Cell-Based Dose Response HTS to Identify Activators of 5'UTR Stem-Loop Driven Prion Protein mRNA Translation in H4 Neuroglioblastoma Cells. [Related pubchem assays: 1829 (Project Summary), 1814 (Primary HTS)]; assay type: functional; conditions: Homo sapiens
[6] = Luminescence Cell-Based Dose Response to Identify Activators of Luciferase Translation or Activity in H4-C Neuroglioblastoma Cells. [Related pubchem assays: 1829 (Project Summary), 1814 (Primary HTS)]; assay type: functional
[7] = Luminescence Cell-Based Dose Confirmation to Identify Activators of 5'UTR Stem-Loop Driven Alpha-Synuclein mRNA Translation in H4 Neuroglioblastoma Cells. [Related pubchem assays: 1829 (Project Summary), 1814 (Primary HTS)]; assay type: functional
[8] = target: Mitogen-activated protein kinase 10 (Homo sapiens, UniProt P53779); assay: Dose response biochemical screening assay for inhibitors of c-Jun N-Terminal Kinase 3 (JNK3). [Related pubchem assays: 746 ]
[9] = target: Intestinal-type alkaline phosphatase (Mus musculus, UniProt P24822); assay: PubChem AID 488785; assay type: functional
[10] = target: T2, Alkaline phosphatase, tissue-nonspecific isozyme (Homo sapiens, UniProt P05186); assay: TNAP enzyme inhibition by screening hits, dose response, selectivity assay for mouse IAP inhibitor project, biochemical, human TNAP, uHTS hits (AID 488906); assay type: functional
T2 sequence (P05186 whole entry): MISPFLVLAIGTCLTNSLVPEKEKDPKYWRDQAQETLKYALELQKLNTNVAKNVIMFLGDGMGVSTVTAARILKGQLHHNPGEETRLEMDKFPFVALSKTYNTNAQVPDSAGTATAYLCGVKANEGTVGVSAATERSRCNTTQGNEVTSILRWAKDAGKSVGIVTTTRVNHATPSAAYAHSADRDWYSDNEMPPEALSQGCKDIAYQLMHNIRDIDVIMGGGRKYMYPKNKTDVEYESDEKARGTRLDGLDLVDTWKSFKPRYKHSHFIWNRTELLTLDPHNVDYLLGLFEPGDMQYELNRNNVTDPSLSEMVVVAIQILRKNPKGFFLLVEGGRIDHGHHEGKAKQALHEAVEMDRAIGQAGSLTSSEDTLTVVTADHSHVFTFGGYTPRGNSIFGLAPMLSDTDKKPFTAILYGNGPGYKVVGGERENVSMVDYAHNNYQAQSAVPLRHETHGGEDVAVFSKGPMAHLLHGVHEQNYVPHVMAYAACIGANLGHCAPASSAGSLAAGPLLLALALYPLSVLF

[11] = target: Intestinal-type alkaline phosphatase (Homo sapiens, UniProt P09923); assay: inhibition of human intestinal alkaline phosphatase – biochemical, dose response (AID 488876); assay type: functional
[12] = Luminescence Cell-Based Dose Response HTS to Identify Inhibitors of Luciferase Translation or Activity in H4-C Neuroglioblastoma Cells. [Related pubchem assays: 1813 (Primary HTS), 1827 (Project Summary)]; assay type: functional
[13] = Luminescence Cell-Based Dose Response HTS to Identify Activators of Luciferase Translation or Activity in H4-C Neuroglioblastoma Cells. [Related pubchem assays: 1829 (Project Summary), 1814 (Primary HTS)]; assay type: functional
[14] = luciferase reporter signal suppression in cells – H4 neuroglioma cells, luminescence, dose response (AID 1990); assay type: functional, cell-based
[15] = luciferase reporter signal reduction – luminescence, H4-C neuroglioblastoma cells, dose response (AID 2458); assay type: functional, cell-based;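 note: H4 neuroglioblastoma cells stably carrying a luciferase reporter gene fusion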
[16] = Luminescence Cell-Based Dose Retest to Confirm Activators of 5'UTR Stem-Loop Driven Alpha-Synuclein mRNA Translation in H4 Neuroglioblastoma Cells. [Related pubchem assays (depositor defined):AID1813, AID1829]; assay type: functional
[17] = Luminescence Cell-Based Dose Response HTS to Identify Activators of 5'UTR Stem-Loop Driven Prion Protein mRNA Translation in H4-C Neuroglioblastoma Cells. [Related pubchem assays: 1829 (Project Summary), 1814 (Primary HTS)]; assay type: functional
[18] = Luminescence Cell-Based Dose HTS Response to Identify Inhibitors of 5'UTR Stem-Loop Driven Prion Protein mRNA Translation in H4-C Neuroglioblastoma Cells. [Related pubchem assays (depositor defined):AID1814, AID1827]; assay type: functional
cells = assay type: functional, cell-based
[19] = Luminescence Cell-Based Dose Response HTS to Identify Inhibitors of 5'UTR Stem-Loop Driven Prion Protein mRNA Translation in H4 Neuroglioblastoma Cells. [Related pubchem assays: 1827 (Project Summary), 1813 (Primary HTS)]; assay type: functional
[20] = alpha-synuclein stem-loop luciferase translation blockers – H4 neuroglioma cells, luminescence, confirmation (AID 1988); assay type: functional, cell-based
BJ [21] = assay: cells; assay type: functional, cell-based; conditions: Homo sapiens
[22] = Luminescence Cell-Based Dose Confirmation HTS to Identify Inhibitors of 5'UTR Stem-Loop Driven Alpha-Synuclein mRNA Translation in H4 Neuroglioblastoma Cells. [Related pubchem assays: 1827 (Project Summary), 1813 (Primary HTS)]; assay type: functional
BJ [23] = assay: BJ-TERT-LT-ST fibroblast viability loss – cell-based, RAS-independent, luminescence, dose response (AID 1935); assay type: functional; conditions: Homo sapiens;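 note: BJ fibroblasts immortalized with TERT plus LT and ST oncogenes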
[24] = DRD fibroblast viability loss – cell-based, non-viral oncogenic, luminescence, dose response (AID 1934); assay type: functional; conditions: Homo sapiens
[25] = alpha-synuclein stem-loop translation blockers – luminescence, H4 neuroglioblastoma cells, dose confirmation, confirmation (AID 2454); assay type: functional, cell-based;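 note: H4 neuroglioblastoma cells carrying an alpha-synuclein 5'UTR luciferase reporter; potency for inhibition of the luciferase signal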
[26] = HEK-293T viability loss after treatment – luminescence, T-cell screen hits, cytotoxicity control for TCR NF-kB inhibitor project, dose response (AID 489026); assay type: functional, cell-based;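 note: cells exposed to compound about 14 hours before the viability readout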

T1 sequence (P41145 whole entry): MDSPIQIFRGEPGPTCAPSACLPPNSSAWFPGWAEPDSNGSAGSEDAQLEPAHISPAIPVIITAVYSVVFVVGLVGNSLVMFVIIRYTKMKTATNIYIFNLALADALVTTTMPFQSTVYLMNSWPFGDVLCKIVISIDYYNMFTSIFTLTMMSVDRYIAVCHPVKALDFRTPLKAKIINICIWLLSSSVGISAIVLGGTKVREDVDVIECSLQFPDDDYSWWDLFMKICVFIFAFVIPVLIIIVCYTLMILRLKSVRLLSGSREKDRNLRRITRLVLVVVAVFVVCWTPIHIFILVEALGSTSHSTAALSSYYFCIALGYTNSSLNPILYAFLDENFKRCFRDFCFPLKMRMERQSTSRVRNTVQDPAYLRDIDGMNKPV
Chain of Intestinal-type alkaline phosphatase (Mus musculus, UniProt P24822) (P24822 whole entry): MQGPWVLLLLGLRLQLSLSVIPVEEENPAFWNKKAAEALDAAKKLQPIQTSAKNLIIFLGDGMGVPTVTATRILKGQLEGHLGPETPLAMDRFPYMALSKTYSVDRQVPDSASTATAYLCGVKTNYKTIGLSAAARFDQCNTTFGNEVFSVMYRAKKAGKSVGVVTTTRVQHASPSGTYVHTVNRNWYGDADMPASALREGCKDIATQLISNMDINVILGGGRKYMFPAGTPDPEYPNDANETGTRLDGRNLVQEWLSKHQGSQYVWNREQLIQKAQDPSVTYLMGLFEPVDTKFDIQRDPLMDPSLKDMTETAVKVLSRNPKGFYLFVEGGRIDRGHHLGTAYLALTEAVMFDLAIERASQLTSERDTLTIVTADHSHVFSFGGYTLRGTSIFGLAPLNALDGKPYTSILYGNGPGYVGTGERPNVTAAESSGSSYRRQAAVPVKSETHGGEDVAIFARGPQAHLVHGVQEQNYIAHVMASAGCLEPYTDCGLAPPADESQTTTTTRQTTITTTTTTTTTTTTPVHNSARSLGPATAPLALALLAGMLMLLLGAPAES
Chain of Mu-type opioid receptor (P35372 whole entry): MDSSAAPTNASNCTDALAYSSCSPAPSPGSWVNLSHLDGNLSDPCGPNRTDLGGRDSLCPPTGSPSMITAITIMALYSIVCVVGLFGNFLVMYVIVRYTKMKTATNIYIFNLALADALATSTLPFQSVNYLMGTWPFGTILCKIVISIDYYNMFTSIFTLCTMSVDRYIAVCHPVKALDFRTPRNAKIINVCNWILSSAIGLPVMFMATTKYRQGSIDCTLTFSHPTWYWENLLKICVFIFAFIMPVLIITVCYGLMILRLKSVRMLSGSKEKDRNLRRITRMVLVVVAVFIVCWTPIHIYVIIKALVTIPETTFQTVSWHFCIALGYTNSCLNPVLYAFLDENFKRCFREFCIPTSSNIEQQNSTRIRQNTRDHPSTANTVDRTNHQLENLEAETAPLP
Chain of Mitogen-activated protein kinase 10 (P53779 whole entry): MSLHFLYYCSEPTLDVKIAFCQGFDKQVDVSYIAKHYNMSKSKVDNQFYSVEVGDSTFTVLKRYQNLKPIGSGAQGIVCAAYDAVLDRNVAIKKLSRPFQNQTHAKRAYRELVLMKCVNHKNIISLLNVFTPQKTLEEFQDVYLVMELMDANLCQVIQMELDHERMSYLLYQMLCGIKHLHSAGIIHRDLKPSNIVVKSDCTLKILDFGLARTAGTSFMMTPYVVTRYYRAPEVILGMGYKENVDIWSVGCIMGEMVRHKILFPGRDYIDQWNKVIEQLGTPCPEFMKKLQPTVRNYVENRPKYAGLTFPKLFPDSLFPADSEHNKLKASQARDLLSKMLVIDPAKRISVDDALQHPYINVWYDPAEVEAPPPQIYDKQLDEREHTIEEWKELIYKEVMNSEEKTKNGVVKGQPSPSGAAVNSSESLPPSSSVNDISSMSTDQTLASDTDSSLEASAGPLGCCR
Chain of Intestinal-type alkaline phosphatase (Homo sapiens, UniProt P09923) (P09923 whole entry): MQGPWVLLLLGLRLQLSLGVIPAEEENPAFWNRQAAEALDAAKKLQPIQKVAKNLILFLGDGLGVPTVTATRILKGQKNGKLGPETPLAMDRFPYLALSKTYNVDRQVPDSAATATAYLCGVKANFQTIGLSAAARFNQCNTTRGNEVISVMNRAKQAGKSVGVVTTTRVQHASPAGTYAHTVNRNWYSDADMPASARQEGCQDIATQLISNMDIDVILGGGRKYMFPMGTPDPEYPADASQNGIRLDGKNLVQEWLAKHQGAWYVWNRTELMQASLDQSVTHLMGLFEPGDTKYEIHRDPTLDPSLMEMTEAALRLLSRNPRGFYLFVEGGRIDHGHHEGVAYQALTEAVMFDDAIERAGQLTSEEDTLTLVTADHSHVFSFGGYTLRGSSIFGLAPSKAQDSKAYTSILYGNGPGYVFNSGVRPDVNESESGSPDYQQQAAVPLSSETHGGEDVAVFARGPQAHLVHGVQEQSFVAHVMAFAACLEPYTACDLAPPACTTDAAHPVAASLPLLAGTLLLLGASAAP
Chain of Delta-type opioid receptor (P41143 whole entry): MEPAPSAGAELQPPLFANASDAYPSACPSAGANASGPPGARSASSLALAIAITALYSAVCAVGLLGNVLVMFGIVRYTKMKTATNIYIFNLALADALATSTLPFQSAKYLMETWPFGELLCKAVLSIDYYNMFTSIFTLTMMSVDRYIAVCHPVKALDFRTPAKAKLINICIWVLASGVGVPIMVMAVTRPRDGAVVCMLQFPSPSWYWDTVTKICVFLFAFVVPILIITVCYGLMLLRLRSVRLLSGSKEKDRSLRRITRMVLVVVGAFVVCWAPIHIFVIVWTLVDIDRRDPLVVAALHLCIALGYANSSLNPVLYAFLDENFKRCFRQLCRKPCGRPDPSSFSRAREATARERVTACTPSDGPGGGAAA

FC(F)(F)c1cc(CSc2nnc(-c3ccccn3)n2Cc2ccco2)ccc1Cl
EC50 [1]: 456 nM (active) | EC50 (Mu-type opioid receptor): > 32 µM (inactive) | EC50 [2]: > 64 µM (inactive) | EC50 [3]: 504 nM (active)

OCCCN1c2ccccc2Nc2nnc(-c3ccccc3)cc21
EC50 [4]: 549 nM (active) | EC50 [5]: < 100 nM (inconclusive) | EC50 (H4): 1.97 µM (active) | EC50 [6]: > 12 µM (not active) | EC50 [7]: 424 nM (active) | IC50 [8]: > 31 µM (not active) | IC50 [9]: 10.3 µM (active) | IC50 [10]: > 100 µM (inactive) | IC50 [11]: > 100 µM (inactive)

COc1cccc(N2CCN(C(=O)c3ccc(C[S+]([O-])c4ccccc4C)o3)CC2)c1 (centres undefined)
EC50 [12]: 946 nM (active) | EC50 [13]: 946 nM (inconclusive) | EC50 [14]: 7.05 µM (active) | EC50 [15]: 1.06 µM (active) | EC50 [16]: 22.5 µM (inconclusive) | EC50 [17]: 325 nM (inconclusive) | EC50 [18]: 325 nM (active) | EC50 (cells): 2.01 µM (active) | EC50 [19]: 9.12 µM (active) | EC50 [20]: < 100 nM (active) | EC50 (BJ [21]): 35 µM (active) | EC50 [22]: 22.5 µM (active) | EC50 (BJ [23]): 1.2 µM (active) | EC50 [24]: 1.59 µM (active) | EC50 [25]: > 12 µM (not active) | IC50 [26]: > 80 µM (inactive)
